Structures are written as SMILES.

A short description of this data set: Human HepG2 cell viability assay in 384 well format. In kind it is toxicity, cell-based. The arrangement: dose 125 nL, time 70.5 hour; concentration not given beside the values. To be noted: HepG2 cells, read-out: Inhibition.
`Nc1cc(C(=O)NCC2CCN(Cc3cccc(O)c3)C2)ccn1` (stereo not drawn): the cytotoxicity at 70.5 h amounted to 18.3%. Take `COc1cccc(OC)c1-c1ccnc2cc(CC(=O)NC(C)C)nn12`: the cytotoxicity at 70.5 h was -7.86%.

Turning to `Cc1cc2ncn(C(=O)N3CCOCC3)c2cc1C`, the cytotoxicity at 70.5 h is -5.67%. The value for `Cn1nccc1C(=O)N1CCCC1c1[nH]ncc1C(N)=O` (stereo not drawn) was -6.47%; that for `CC(C)CCNC(=O)c1ccc(-c2ccco2)[nH]c1=O` was -1.63%; that for `CC(=O)N1CCCC2(CN(Cc3ccc(F)cc3)CCO2)C1` (stereo not drawn) was 2.34%.

On to `CN(CC1Cc2ccccc2CN1C)c1nc(N)nc2c1CCNCC2` (stereo not drawn), for which the cytotoxicity at 70.5 h is -9.32%. Regarding `O=C1[C@H]2CN(Cc3ccoc3)C[C@H]2CN1Cc1ccncc1`, the cytotoxicity at 70.5 h is -1.61%. The value for `COC[C@@H]1CCCN1C(=O)c1cc(-c2ccc(OC)cc2)n[nH]1` was -7.57%; that for `Cc1nn(C)c(N2CCOCC2)c1CNCc1ccoc1C` was -11.3%; that for `CNS(=O)(=O)Cc1cccc(CNC(=O)Nc2cn[nH]c2)c1` was -4.03%. As for `CCS(=O)(=O)N1CCc2c(CN(C)Cc3ccco3)cncc2C1`, the cytotoxicity at 70.5 h is -6.14%. Regarding `CCCN(C(=O)c1csnn1)C1CCCN(Cc2ccccc2)C1` (stereo not drawn), the cytotoxicity at 70.5 h was -5.57%. For `COc1cc2c(c(OC)c1OC)CCN(CCN1CCCCC1)CC2`, the cytotoxicity at 70.5 h is -10.5%. Turning to `O=C(CCCc1ccccn1)N1CCCC1c1noc(C2CC2)n1` (stereo not drawn), the cytotoxicity at 70.5 h is -9.72%. As to `CC(C)CCNc1c(C#N)c2c(c3nncn13)CN(C)CC2`, the cytotoxicity at 70.5 h is -3.96%. In the case of `COc1ccc(CN(C)C2CSCCSC2)c2cccnc12`, the cytotoxicity at 70.5 h is -6.62%. The value for `CN1C(=O)CC(c2cnn(C)c2)C12CCN(C(=O)c1ccco1)CC2` (stereo not drawn) was -6.73%; that for `COCCNC(=O)c1cc2c(nc1O)CC(c1cccs1)CC2=O` (stereo not drawn) was -12.9%. On to `Cc1c(NCc2ccc(C#N)cc2)cccc1S(=O)(=O)NC1CC1`, for which the cytotoxicity at 70.5 h is 1.12%. The value for `CCc1nc(C2CCCN2Cc2nc(C(C)(C)C)no2)no1` (stereo not drawn) was 2.43%; that for `O=C(N[C@H]1CN(Cc2ccsc2)[C@@H]2CCCO[C@H]12)C1CC1` was -11.3%. The value for `O=C(C1CCCC1)N1C[C@@H]2CCNC[C@@H]21` was -9.43%; that for `O=C(c1cccnc1)N1C[C@@H](c2ccccc2)[C@@]2(CCNC2=O)C1` was 7.29%.

Consider `CCOC(=O)CNC(=O)NCc1cccn1Cc1ccccc1F`, for which the cytotoxicity at 70.5 h is -2.5%. As for `CCCC(=O)N1CCC2(CC1)CC(NC(C)=O)c1ccccc1O2` (stereo not drawn), the figure is -13.7%; as for `Cc1noc2nc(C3CCN(CC4=CCCOC4)CC3)cc(C(F)F)c12`, -7.18%.

For `CC(C)N(C(=O)CCc1cccc(F)c1)C1CCOCC1`, the cytotoxicity at 70.5 h is -4.3%. For `O=C(NCC(=O)N1CCc2ccccc2C1)c1ccoc1`, the cytotoxicity at 70.5 h amounted to 10.2%. As to `O=C(CC1CC1)N1CCO[C@H]2[C@H](OCCCn3cccn3)CC[C@@H]21`, the cytotoxicity at 70.5 h was -4.17%. In the case of `Cc1nc(CN(C)C2CCN(Cc3nnc(C4CC4)o3)C2)no1` (stereo not drawn), the cytotoxicity at 70.5 h was determined as 2.48%. The value for `COc1ccc(Br)cc1CN(C)c1nc2c(cnn2C)c(=O)[nH]1` was -10.6%; that for `CN(C)c1cccc(C2CCCN2CCCN2CCOC2=O)c1` (stereo not drawn) was 7.84%. Turning to `Cc1cc(NC(=O)C2CCCN(C(=O)NCC(C)C)C2)ccn1` (stereo not drawn), the cytotoxicity at 70.5 h was -14.5%.

For the compound `CC(=O)N1CCC(N2CCC(c3nc(C)cc(C)n3)C2)CC1` (stereo not drawn), the cytotoxicity at 70.5 h is -3.99%.

For `CCSc1ncc(Cl)c(C(=O)NC(CCSC)C(=O)O)n1` (stereo not drawn), the cytotoxicity at 70.5 h is -7.9%. As for `CC1CN(CC(=O)NC(=O)NCc2cccs2)CCN1CC(F)(F)F` (stereo not drawn), the figure is -11%. The value for `Cc1ncsc1CCC(=O)NC1CCN(c2ccc(Cl)nn2)CC1` was -13.9%; that for `O=C(N1CCOCC1)[C@@]12CCO[C@@H]1CCN(Cc1ccncc1)C2` was -3.44%; that for `C1CCC(c2nnc3sc(C4CCCO4)nn23)C1` (stereo not drawn) was 10.1%. Turning to `Cc1ccc(C(=O)N2CCCC3(C2)C(=O)N(C)c2ccccc23)c(=O)[nH]1` (stereo not drawn), the cytotoxicity at 70.5 h was -10.2%. For `COc1ncccc1CNC(=O)N(Cc1ccccc1F)C1CC1`, the cytotoxicity at 70.5 h was -0.0541%. `Cc1cccc(O[C@H]2COCCN(Cc3sc(C)nc3C)C2)n1`: the cytotoxicity at 70.5 h came to 10.9%. As for `CN(C)S(=O)(=O)NCC(Cc1cccc(F)c1)N1CCNC1=O` (stereo not drawn), the figure is -2.09%; as for `CCCc1cc(C(=O)NC2CCCCNC2=O)[nH]n1` (stereo not drawn), -5.95%. `Cc1ncccc1Oc1ncnc(N2CCC(O)(CO)CC2)c1C`: the cytotoxicity at 70.5 h is -6.21%. Regarding `O=C(c1ccc2c(c1)CCCC2)N1CCn2ncnc2C1`, the cytotoxicity at 70.5 h is 2.9%. As to `Cc1ccc(N2CCN(C(=O)COc3nccc(C)n3)CC2)nn1`, the cytotoxicity at 70.5 h turned out to be 16%. As for `CCc1noc(C(C)N(C)CC(=O)Nc2c(C)cccc2C)n1` (stereo not drawn), the figure is -4.56%.

`O=C1COC2(CCN(Cc3nccs3)CC2)CN1CC1CC1`: the cytotoxicity at 70.5 h stood at 6.87%. The value for `Cc1nc(O)cc(C2CCN(C(=O)c3ccsc3)CC2)n1` was -5.48%; that for `O=C(O)C1(Oc2ccccc2)CCN(c2ccncc2)CC1` was -2.23%.

For `CC1CCN(c2ncc3c(n2)CN(c2ccc4c(c2)OCO4)C3=O)CC1`, the cytotoxicity at 70.5 h is -6.45%. The value for `COc1ccc(C(=O)Nc2ccccc2C(C)C)c(OC)n1` was 5.28%; that for `Cc1ccc(C(=O)N2CCC3(CCCC3)CC2)c(=O)[nH]1` was -99.3%.

In the case of `CCN(Cc1cnc(NCc2ccccc2)nc1)C1CCS(=O)(=O)C1` (stereo not drawn), the cytotoxicity at 70.5 h is -7.52%.

With `CCC(=O)N1CCN(c2cc(N(C)C)cnn2)CC1`, the cytotoxicity at 70.5 h was -10.5%. As for `O=S(=O)(c1cccnc1)N1C[C@@H]2COC[C@]2(COCC2CC2)C1`, the figure is -3.67%; as for `N#CCCN(Cc1cccnc1)C(=O)c1ccc(-n2cnnn2)cc1`, -12.1%; as for `Cc1nc(C)n(C2CCCN(C(=O)CCOc3cccc(F)c3)C2)n1` (stereo not drawn), -6.19%. On to `O=C(COC1CCCC1)N1C[C@@H]2CN(Cc3ccoc3)CCO[C@@H]2C1`, for which the cytotoxicity at 70.5 h was -6.78%. The value for `CC1CCN(C(=O)CCN2Cc3ccccc3C[C@H]2C(N)=O)C1` (stereo partly drawn) was -6.72%; that for `O=C(Cn1ccc2ccc(F)cc21)NCc1ccc(C(=O)O)cc1` was 18%; that for `CCN(Cc1c(C)nn(CC)c1C)S(=O)(=O)c1cnn(C)c1C` was 14.5%. As for `Cc1ccc(-c2nc(CCNCc3ccncc3)co2)cc1`, the figure is -6.27%; as for `Cc1nn(CCC#N)c(C)c1CCC(=O)N(C)Cc1ccsc1`, -8.77%; as for `Cc1ccc(N2CCC3(CC2)CNC(=O)CO3)nn1`, -4.26%. The value for `COc1cccc(CNC(=O)CCC2=Nc3ccccc3S(=O)(=O)N2)c1` was -1.77%; that for `N#Cc1cccnc1NC1CCN(c2ccccc2OC(F)F)C1=O` (stereo not drawn) was 17.8%. Consider `Cc1nc(NC(=O)COCC(F)(F)F)ccc1Br`, for which the cytotoxicity at 70.5 h turned out to be 1.69%. The value for `Cc1ccc(C(=O)N2CCCC(n3cncn3)C2)o1` (stereo not drawn) was 1.71%; that for `COC1CCCN(C(=O)NCC(F)F)C1` (stereo not drawn) was -5.69%. Turning to `CSc1ccc(NCc2csc(C)n2)cc1F`, the cytotoxicity at 70.5 h is -0.888%. Turning to `CN(C)C(=O)CN1CCOCC2(CCN(c3ncc(F)cn3)CC2)C1`, the cytotoxicity at 70.5 h was -6.93%. Consider `CCn1ncc(CN2CCN(C(=O)Cn3cc(Br)c(C)n3)CC2)c1C`, for which the cytotoxicity at 70.5 h was -9.19%.

On to `Cc1cc(C(=O)N2CCN(c3ccncc3Cl)CC2)n(C)n1`, for which the cytotoxicity at 70.5 h is -1.44%. The value for `O=C(c1ccsc1)N1CC(C(=O)N2CCOCC2)C2(CCOCC2)C1` (stereo not drawn) was -1.97%; that for `CCn1nc(C)c2nnn(CC(=O)Nc3cccc(F)c3)c(=O)c21` was -5.5%. With `O=C1CCc2cc(S(=O)(=O)NCc3cc4n(n3)CCCNC4)ccc2N1`, the cytotoxicity at 70.5 h is -12.2%. The value for `COC(=O)C(O)C1CCN(CCc2ccc(C)cc2)CC1` (stereo not drawn) was 9.49%; that for `CN1CC[C@@H]2OC[C@H](C(=O)N(C)Cc3ccccn3)C[C@@H]2C1` was 2.32%; that for `O=C(O)c1cccc(C2CCCN(S(=O)(=O)N3CCOCC3)C2)c1` (stereo not drawn) was -7.39%. The value for `CN(C)C(=O)CN1CCOCC2(C1)CN(c1ncc(F)cn1)CCO2` (stereo not drawn) was -10.2%.

Regarding `O=C(Cc1cccs1)Nc1cnn(C2CCOCC2)c1`, the cytotoxicity at 70.5 h is -12.8%. In the case of `CC(C)N1CCC(Cn2cc(C(N)=O)cn2)CC1`, the cytotoxicity at 70.5 h came to 11.9%. For `O=S(=O)(CCNCc1cccc2c1OCCO2)N1CCOCC1`, the cytotoxicity at 70.5 h came to 5.04%. As for `O=C(OCc1cccc(F)c1)c1cccc(C(=O)N2CCCC2)n1`, the figure is -1.08%; as for `CC(C)c1noc(-c2ccc(-n3cnc(C(=O)O)c3)nc2)n1`, -15.8%; as for `CC(C)c1noc(C(C)N2CCN(c3ccc(C#N)cn3)CC2)n1` (stereo not drawn), -15.5%. The value for `Cc1ccccc1C(NC(=O)CNC(=O)c1ccoc1C)C(C)C` (stereo not drawn) was 11.7%; that for `COc1ccc(NC(=O)C2OC(c3cccs3)=NN2C(C)=O)cc1OC` (stereo not drawn) was 2.61%. For `O=C(c1cc(C2CCCCN2C(=O)C2CCC2)n[nH]1)N1CCOCC1` (stereo not drawn), the cytotoxicity at 70.5 h stood at 18.8%.

For the compound `CN(Cc1cccc(C#N)c1)C(=O)C1CC(c2cccc(F)c2)=NO1` (stereo not drawn), the cytotoxicity at 70.5 h was -6.75%. As for `O=C(NCc1cc2n(n1)CCCNC2)C1(c2ccccc2)CCCCC1`, the figure is 0.103%. In the case of `O=C1CC(c2cccnc2)c2c(c(C(=O)O)cn2-c2ccccc2)N1` (stereo not drawn), the cytotoxicity at 70.5 h was -1.92%. As for `CNC(=O)[C@@H](c1ccccc1F)N1CCC[C@H]1C(=O)NC1CC1`, the figure is -4.55%; as for `CC(C)N1CCC2(CC1)C(=O)N(CCN(C)C)c1ccccc12`, -6.47%.

For the compound `CC(C)CCN1C(=O)C2(NC(=O)c3ccccc3O2)c2ccccc21` (stereo not drawn), the cytotoxicity at 70.5 h was -15.1%.

The record behind these values is ChEMBL document CHEMBL3507680, “University of Dundee, Gates Library screen for HepG2 cell viability”.
